Test results from ChEMBL document CHEMBL3044964, “Synthesis of novel imidazo[2,1-b][1,3,4]thiadiazoles appended to sydnone as anticancer agents” (Med Chem Res, 2013).
In brackets after ≈: the same amount, converted by molar mass. Activity calls are given as the source filed them. No cut-off for these calls is given here.

Columns and labels:
Escherichia coli [1] = test: Toxicity in wild type Escherichia coli AB1157 assessed as growth inhibition after 24 hr by agar well diffusion method; type: organism-based; details: in vivo
Escherichia coli [2] = test: Toxicity in wild type Escherichia coli AB1157 assessed as growth inhibition at 1000 ug after 24 hr by agar well diffusion method; type: organism-based; details: in vivo
Escherichia coli [3] = test: Toxicity in wild type Escherichia coli AB1157 assessed as growth inhibition at 250 ug after 24 hr by agar well diffusion method; type: organism-based; details: in vivo
Escherichia coli [4] = test: Toxicity in wild type Escherichia coli AB1157 assessed as growth inhibition at 500 ug after 24 hr by agar well diffusion method; type: organism-based; details: in vivo
HT-29 = test: Cytotoxicity against Homo sapiens (human) HT-29 cells by SRB assay; type: functional
Escherichia coli [5] = test: Toxicity in wild type Escherichia coli AB1157 assessed as growth inhibition at 2000 ug after 24 hr by agar well diffusion method; type: organism-based; details: in vivo
Escherichia coli [6] = test: Toxicity in wild type Escherichia coli AB1157 assessed as growth inhibition at 125 ug after 24 hr by agar well diffusion method; type: organism-based; details: in vivo
Escherichia coli [7] = test: Induction of Escherichia coli DNA cleavage at 25 mg after 2 hr by agarose gel electrophoresis

Molecule | MIC (Escherichia coli [1]) [mg] | diameter of the inhibition zone (DIZ) (Escherichia coli [2]) [cm] | diameter of the inhibition zone (DIZ) (Escherichia coli [3]) [cm] | diameter of the inhibition zone (DIZ) (Escherichia coli [4]) [cm] | GI50 (HT-29) [µg/mL] | LC50 (HT-29) [µg/mL] | TGI (HT-29) [µg/mL] | diameter of the inhibition zone (DIZ) (Escherichia coli [5]) [cm] | growth inhibition (GI) (Escherichia coli [6]) | Activity (Escherichia coli [7])
COc1ccc(-n2n[o+]c([O-])c2-c2nn3cc(-c4cc5ccccc5oc4=O)nc3s2)cc1 | 1 | 0.5 | 0 | 0 | 3.14 (≈ 6.83 µM) | > 70 | < 30 | 0.8 | Non-toxic | –
O=c1oc2ccc(Br)cc2cc1-c1cn2nc(-c3c([O-])[o+]nn3-c3ccc(Cl)cc3)sc2n1 | > 2 | 0 | 0 | 0 | 5.25 (≈ 9.67 µM) | > 70 | > 40 | 0 | Non-toxic | –
O=c1oc2ccc(Cl)cc2cc1-c1cn2nc(-c3c([O-])[o+]nn3-c3ccc(Cl)cc3)sc2n1 | > 2 | 0 | 0 | 0 | 8 (≈ 16.1 µM) | > 80 | > 40 | 0 | Non-toxic | Active
STANNOUS CHLORIDE | 0.25 | 0.8 | 0.3 | 0.5 | – | – | – | 1.5 | Non-toxic | –
O=c1oc2ccccc2cc1-c1cn2nc(-c3c([O-])[o+]nn3-c3ccc(Cl)cc3)sc2n1 | > 2 | 0 | 0 | 0 | 4 (≈ 8.62 µM) | > 80 | < 30 | 0 | Non-toxic | Active
O=c1oc2ccc(Cl)cc2cc1-c1cn2nc(-c3c([O-])[o+]nn3-c3ccccc3)sc2n1 | > 2 | 0 | 0 | 0 | 7.7 (≈ 16.6 µM) | > 80 | > 40 | 0 | Non-toxic | –
Cc1ccc(-n2n[o+]c([O-])c2-c2nn3cc(-c4cc5cc(Cl)ccc5oc4=O)nc3s2)cc1 | > 2 | 0 | 0 | 0 | 7.9 (≈ 16.5 µM) | > 80 | > 40 | 0 | Non-toxic | Active
O=c1oc2ccc(Br)cc2cc1-c1cn2nc(-c3c([O-])[o+]nn3-c3ccccc3)sc2n1 | > 2 | 0 | 0 | 0 | 5.6 (≈ 11 µM) | > 70 | > 30 | 0 | Non-toxic | –
Cc1ccc(-n2n[o+]c([O-])c2-c2nn3cc(-c4cc5ccccc5oc4=O)nc3s2)cc1 | > 2 | 0 | 0 | 0 | 4.23 (≈ 9.54 µM) | > 80 | < 30 | 0 | Non-toxic | –
COc1ccc(-n2n[o+]c([O-])c2-c2nn3cc(-c4cc5cc(Cl)ccc5oc4=O)nc3s2)cc1 | 1 | 0.5 | 0 | 0 | 3.68 (≈ 7.45 µM) | > 70 | < 30 | 0.8 | Non-toxic | –
Cc1ccc(-n2n[o+]c([O-])c2-c2nn3cc(-c4cc5cc(Br)ccc5oc4=O)nc3s2)cc1 | > 2 | 0 | 0 | 0 | 6.1 (≈ 11.7 µM) | > 70 | > 30 | 0 | Non-toxic | –
COc1ccc(-n2n[o+]c([O-])c2-c2nn3cc(-c4cc5cc(Br)ccc5oc4=O)nc3s2)cc1 | 1 | 0.5 | 0 | 0 | 3.04 (≈ 5.65 µM) | > 80 | < 30 | 0.8 | Non-toxic | –
O=c1oc2ccccc2cc1-c1cn2nc(-c3c([O-])[o+]nn3-c3ccccc3)sc2n1 | > 2 | 0 | 0 | 0 | 6.3 (≈ 14.7 µM) | > 70 | > 30 | 0 | Non-toxic | –
